Test results reported in US8288444B2 (Codman & Shurtleff, Inc., priority 2008, dated 2012).
Like-named read-outs stand apart in the source and are kept apart here.

Columns and labels:
[1] = glycinate ester of the parent named in the row; cited from earlier work
PC 12 cells, βA (25-35) = test: in vitro protection of PC 12 cells against beta amyloid (25-35) insult; format: cell-based; conditions: for potency as neuroprotectant against beta amyloid relative to curcumin: both peptides
Source text: Park, J. Nat. Prod., 65, 9 Sep.

[2] = cited from earlier work
[3] = carbamazepine peak brain tissue concentration by route (Barakat)
[4] = tested on: differentiated neuroblastoma cells; conditions: Yang 2005; cited from earlier work
[5] = cited from earlier work; remark: listed apart in the source
[6] = tested on: Alzheimer's Transgenic mice; conditions: 160 ppm in the diet; Lim 2001; cited from earlier work
amyloid beta oligomers = amyloid beta oligomers (Homo sapiens, UniProt P05067); conditions: cited from earlier work; for prevention of toxic beta amyloid oligomer formation in vitro: Yang
[7] = tested on: antigen-stimulated spleen cytotoxic T-lymphocyte proliferation; conditions: oral pretreatment with curcumin before MPA administration; mice; cited from earlier work
Pgp = conditions: freshly-plated and 72 hour-cultured hepatocytes; dose-dependent; cited from earlier work
UGT = conditions: Caco-2 cells; cited from earlier work
[8] = tested on: middle aged female Sprague-Dawley rats; conditions: 500 ppm dietary curcumin; Frautschy 2001; cited from earlier work
[9] = ester prodrug vs parent estradiol

amyloid beta oligomers, sequence (P05067 672-713 limits assumed): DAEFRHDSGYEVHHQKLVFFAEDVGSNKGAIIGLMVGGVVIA

17β-estradiol
Half-life Of glycinate ester In plasma [1]: 1 to 2 min

O=C(C=Cc1ccc(O)cc1)CC(=O)C=Cc1ccc(O)cc1 [compound 33, 1,7-bis(4-hydroxyphenyl)-1,6-heptadiene-3,5-dione]
potency relative to natural curcumin in surviving toxic insult by β amyloid (PC 12 cells, βA (25-35)): about twice as potent
potency as neuroprotectant against beta amyloid relative to curcumin (PC 12 cells, βA (25-35); analysis of the Kim data): ~2 fold

O=C(C=Cc1ccc(O)cc1)CC(=O)CCc1ccc(O)cc1 [compound 34, 1,7-bis(4-hydroxyphenyl)-1-heptene-3,5-dione]
potency as neuroprotectant against beta amyloid relative to curcumin (PC 12 cells, βA (25-35); analysis of the Park data): ~10 fold

COc1cc(C=CC(=O)CC(=O)C=Cc2ccc(O)cc2)ccc1O [compound 32, 1-(4-hydroxy-3-methoxyphenyl)-7-(4-hydroxyphenyl)-1,6-heptadiene-3,5-dione]
potency as neuroprotectant against beta amyloid relative to curcumin (PC 12 cells, βA (25-35); analysis of the Kim data): ~1.5 fold

COc1cc(/C=C/C(=O)COC(=O)/C=C/c2ccc(O)c(OC)c2)ccc1O [compound 31, 4″-(3′″-methoxy-4′″-hydroxyphenyl)-2″-oxo-3″-enebutanyl3-(3′-methoxy-4′ hydroxyphenyl) propenoate]
potency as neuroprotectant against beta amyloid relative to curcumin (PC 12 cells, βA (25-35); analysis of the Park data): ~5 fold

NC(=O)N1c2ccccc2C=Cc2ccccc21 [Carbamazepine]
Carbamazepine Peak Brain Tissue ([2]; Intranasal, 0.2 mg/kg): 12 µg/g
Carbamazepine Peak Brain Tissue ([2]; Intravenous, 8.0 mg/kg): 4 µg/g
Carbamazepine Peak Brain Tissue ([2]; Oral, 16 mg/kg): 3 µg/g
Carbamazepine Peak Brain Tissue, ~uM ([3]; Intranasal, 0.2 mg/kg): ~48 µM
Carbamazepine Peak Brain Tissue, ~uM ([3]; Intravenous, 8.0 mg/kg): ~16 µM
Carbamazepine Peak Brain Tissue, ~uM ([3]; Oral, 16 mg/kg): ~12 µM

COc1cc(/C=C/C(=O)CC(=O)/C=C/c2ccc(O)c(OC)c2)ccc1O [curcumin, (E,E)-1,7-bis(4-hydroxy-3-methoxyphenyl)-1,6-heptadiene-3,5-dione]
curcumin concentration that blocks the in vitro toxicity of Aβ1-42 oligomers [4]: 0.1 to 1.0 µM
solubility in water [5]: insoluble in water
solubility in water (parent compound) [5]: about 0.004 mg/ml
reduction of beta amyloid plaque burden [6]: 30-40%
reduction of the amount of soluble beta amyloid [6]: 43%
prevention of toxic beta amyloid oligomer formation in vitro (amyloid beta oligomers; 0.25-4 uM curcumin): only minimally prevent
prevention of toxic beta amyloid oligomer formation in vitro (amyloid beta oligomers; 16-64 uM curcumin): completely prevent
curcumin concentration that inhibits the in vitro formation of amyloid beta oligomers (amyloid beta oligomers; in vitro, Yang 2005): 0.1 to 1.0 µM
increase in immunosuppression of antigen-stimulated spleen cytotoxic T-lymphocyte proliferation [7]: six-fold increase
Rhodamine-123 (R-123) efflux (Pgp): inhibited
inhibition of UGT activity in the conjugation of 1-naphthol (UGT): moderate inhibition
reduction of amyloid beta deposits induced by beta amyloid infusion [8]: about 80%

CCN(CC)CCC(=O)Oc1ccc2c(c1)CC[C@@H]1[C@@H]2CC[C@]2(C)[C@@H](O)CC[C@@H]12.Cl [3-DEAPE2HCl, 3-N,N-diethylamino propionyl ester hydrochloride]
increase in water solubility [9]: > 1000 fold
water solubility of estradiol modified with the moiety ([5]; Al-Ghananeem): about 20 mg/ml
